In patent US20150087606A1, “PHARMACEUTICAL COMPOSITION FOR PREVENTING OR TREATING AMYLOID BETA PEPTIDE-ASSOCIATED DISEASES OR CONDITIONS” (Sinphar Tian-Li Pharmaceutical Co., Ltd. (Hangzhou), priority 2011, published 2015):
“Also recorded” adds a separate entry of the source.

Experiments:
[1] = tested on: extracellular Aβ1-40 accumulation, SH-SY5Y cells; assay: Effect of each test sample on extracellular Aβ1-40 accumulation (Human Aβ1-40 immunoassay of the medium); assay type: cell-based
Method: Wild-type human neuroblastoma cells (SH-SY5Y) were cultured in Eagle's Minimum essential Medium (EMEM)/Ham's F12 medium (1:1 mixture) (containing 10% FBS, 10 units/ml penicillin, 10 μg/ml Streptomycin). Wild-type mouse neuroblastoma Neuro-2a cells were cultured in minimum essential medium (MEM) (containing 10% FBS, 10 units/ml penicillin, 10 μg/ml Streptomycin).
The medium of the wild-type human neuroblastoma SH-SY5Y cells in Example 1 were switched into chemical defined medium (EMEM/F12 medium (Cat. No. 12500-062), Hepes 5 mM, Glucose 0.6%, NaHCO3 3 mM, Glutamine 2.5 mM, Insulin 25 μg/ml, Transferin 100 μg/ml, Progestrone 20 nM, Putrescine 60 μM, Sodium selenite 30 nM, Heparin 2 μg/ml). Each well contained 1×10^5 SH-SY5Y cells in 300 μl of culture medium. Thirty minutes later, each well was treated with the test samples given in Table 1 respectively at a total concentration of 50 μg/ml for 24 hours. After that, the level of Aβ1-40 in the medium of each well was analyzed by Human Aβ1-40 immunoassay kits (Catalog #KHB3482 Invitrogen).
Human neuroblastoma SH-SY5Y cells cause extracellular accumulation of Aβ. […] The results were shown in mean ± standard deviation (SD) form. Significant difference between the Vehicle control group and the test sample-treated groups were indicated by * * * , P<0.001.

[2] = target: Human Aβ1-42 (Homo sapiens, UniProt P05067); assay: Effect of each test sample on Aβ1-42 oligomerization (thioflavin T fluorescence); assay type: biochemical; details: 50 μg/ml, 4° C., 24 hours, thioflavin T fluorescence (FIG. 2)
Chain of Human Aβ1-42 (P05067 672-713 limits assumed): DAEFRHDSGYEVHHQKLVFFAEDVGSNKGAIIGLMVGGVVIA
Method: Dried Human Aβ1-42 was taken out from the refrigerator and equilibrated to room temperature. Aβ1-42 was dissolved in 1,1,1,3,3,3-Hexa-fluro-2-propanol (HFIP) to a concentration of 1 mM, and was then placed at room temperature for one hour. The Aβ1-42/HFIP solution was aliquoted by Hamilton syringe, and was then dried under a stream of nitrogen gas, followed by storing at a temperature of −20° C. Aβ1-42 treated with HFIP was dissolved in PBS, and was vibration-incubated with treatment of each test sample at a concentration of 50 μg/ml and at 4° C. for 24 hours to prepare Aβ1-42 oligomers. The level of Aβ1-42 oligomerization was analyzed by thioflavin T fluorescence (Ex=450 nm, Em=482 nm). […] That is to say, these pharmaceutical compositions can be used to prevent or treat Aβ-associated diseases or conditions.

activity on inhibiting Aβ1-42 oligomerization (in words) [2] | Compound | reduces the level of Aβ1-40 in the medium ([1]; total concentration of 50 μg/ml, 24 hours, based on Vehicle control group (FIG. 1)) | activity on reducing extracellular Aβ1-40 accumulation (in words) ([1]; total 50 μg/ml, 24 hours (FIG. 1))
 | C[C@@H]1O[C@@H](O[C@@H]2[C@@H](O)[C@H](OCCc3ccc(O)c(O)c3)O[C@H](CO)[C@H]2OC(=O)/C=C/c2ccc(O)c(O)c2)[C@H](O)[C@H](O)[C@H]1O [A, Acteoside] | about 10% | 
better activity | C[C@@H]1O[C@@H](O[C@@H]2[C@@H](O)[C@H](OCCc3ccc(O)c(O)c3)O[C@H](COC(=O)/C=C/c3ccc(O)c(O)c3)[C@H]2O)[C@H](O)[C@H](O)[C@H]1O [I, Isoacteoside] |  | significant activity; also recorded: better activity
